Activity calls are given as the source filed them. No cut-off for these calls is given here.
Legend:
Rattus norvegicus [1] = experiment: Potentiation of risperidone-induced catalepsy in Sprague-Dawley rats at 10 mg/kg, sc administered 15 mins after risperidone injection measured after 45 mins; type: ADME, organism-based; parameters: dose 10 mg/kg, route subcutaneous; settings: in vivo, 0.75 h
Mus musculus [2] = experiment: Induction of salivation in ddY mouse at 10 to 30 mg/kg, sc measured for 30 mins after drug administration; type: organism-based; parameters: dose 10-30 mg/kg, route subcutaneous; settings: in vivo, 0.5 h
[3] = target: T1, Muscarinic acetylcholine receptor M2 (Homo sapiens) (UniProt P08172); experiment: Partial agonist activity at human M2 receptor co-expressed with Galpha16 in CHO cells assessed as calcium mobilization at 30 uM after 60 mins by FLIPR assay; type: functional, cell-based
T1 sequence (whole entry): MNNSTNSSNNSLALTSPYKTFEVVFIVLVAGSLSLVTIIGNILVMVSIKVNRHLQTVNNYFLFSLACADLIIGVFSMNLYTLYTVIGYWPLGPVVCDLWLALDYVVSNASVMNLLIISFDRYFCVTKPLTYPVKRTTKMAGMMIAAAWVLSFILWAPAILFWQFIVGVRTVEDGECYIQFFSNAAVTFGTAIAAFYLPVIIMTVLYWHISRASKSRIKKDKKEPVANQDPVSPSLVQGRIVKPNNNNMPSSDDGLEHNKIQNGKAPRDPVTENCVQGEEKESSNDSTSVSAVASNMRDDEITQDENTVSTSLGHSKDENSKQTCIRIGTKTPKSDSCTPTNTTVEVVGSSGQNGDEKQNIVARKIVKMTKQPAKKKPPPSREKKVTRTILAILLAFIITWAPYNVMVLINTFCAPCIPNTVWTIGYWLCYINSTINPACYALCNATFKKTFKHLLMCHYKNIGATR

Cynomolgus monkey [4] = experiment: Induction of vomiting in sc dosed cynomolgus monkey; type: organism-based, Macaca fascicularis; settings: in vivo
Cynomolgus monkey [5] = experiment: Induction of drowsiness in sc dosed cynomolgus monkey; type: organism-based, Macaca fascicularis; settings: in vivo
[6] = target: T2, Muscarinic acetylcholine receptor M1 (Homo sapiens) (UniProt P11229); experiment: (§1) Partial agonist activity at human M1 receptor in CHO cells assessed as calcium mobilization after 60 mins by FLIPR assay; type: functional, cell-based
T2 sequence (whole entry): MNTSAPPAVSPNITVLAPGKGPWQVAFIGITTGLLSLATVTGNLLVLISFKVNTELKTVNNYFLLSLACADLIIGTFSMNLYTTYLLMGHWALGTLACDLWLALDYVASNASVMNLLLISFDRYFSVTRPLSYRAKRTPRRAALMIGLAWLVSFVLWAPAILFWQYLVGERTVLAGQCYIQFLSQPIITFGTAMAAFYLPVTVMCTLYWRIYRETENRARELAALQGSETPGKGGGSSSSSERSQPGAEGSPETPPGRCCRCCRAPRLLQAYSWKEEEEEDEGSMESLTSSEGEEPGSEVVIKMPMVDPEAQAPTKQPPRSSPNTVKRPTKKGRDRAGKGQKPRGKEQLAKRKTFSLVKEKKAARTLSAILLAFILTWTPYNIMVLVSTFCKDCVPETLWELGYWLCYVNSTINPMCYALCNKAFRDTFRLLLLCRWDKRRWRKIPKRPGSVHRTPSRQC

[7] = target: T3, Muscarinic acetylcholine receptor M1 (Homo sapiens, UniProt P11229); experiment: as §1; type: functional, cell-based
T3 sequence (P11229 whole entry): T2 sequence (whole entry)

Rattus norvegicus [8] = experiment: Induction of catalepsy in Sprague-Dawley rats at 10 to 30 mg/kg, sc measured after 60 mins; type: organism-based; parameters: dose 10-30 mg/kg, route subcutaneous; settings: in vivo, 1 h
Mus musculus [9] = experiment: Antipsychotic activity in ddY mouse assessed as reversal of apomorphine-induced climbing behaviour at 0.3 to 3 mg/kg, sc administered 20 mins prior to apomorphine injection measured for 20 mins from 10 mins after apomorphine challenge; type: functional, organism-based
Cynomolgus monkey [10] = experiment: Induction of salivation in sc dosed cynomolgus monkey; type: organism-based, Macaca fascicularis; settings: in vivo
[11] = target: Voltage-gated inwardly rectifying potassium channel KCNH2 (Homo sapiens, UniProt Q12809); experiment: Inhibition of human ERG assessed as decrease in tail current amplitude measured after 5 mins by whole cell patch clamp technique
Cynomolgus monkey [12] = experiment: Cardiotoxicity in telemetered cynomolgus monkey assessed as increase in mean blood pressure at 1.5 to 6 mg/kg, sc measured after 1 to 4 hrs by telemetry method; type: toxicity, organism-based, Macaca fascicularis; parameters: route subcutaneous; settings: in vivo
Rattus norvegicus [13] = experiment: Antipsychotic activity in Sprague-Dawley rats assessed as inhibition of apomorphine-induced prepulse inhibition deficit at 1 to 10 mg/kg, sc administered 15 mins prior to apomorphine injection measured after 15 mins; type: functional, organism-based
[14] = target: T2, Muscarinic acetylcholine receptor M1 (Homo sapiens); experiment: Partial agonist activity at human M1 receptor in CHO cells assessed as calcium mobilization at 3 uM after 60 mins by FLIPR assay; type: functional, cell-based
[15] = target: T1, Muscarinic acetylcholine receptor M2 (Homo sapiens); experiment: Partial agonist activity at human M2 receptor co-expressed with Galpha16 in CHO cells assessed as calcium mobilization at 3 uM after 60 mins by FLIPR assay; type: functional, cell-based
[16] = target: Muscarinic acetylcholine receptor M3 (Homo sapiens) (UniProt P20309); experiment: Partial agonist activity at human M3 receptor in CHO cells assessed as calcium mobilization at 30 uM after 60 mins by FLIPR assay; type: functional, cell-based
[17] = target: Muscarinic acetylcholine receptor M3 (Homo sapiens) (UniProt P20309); experiment: Partial agonist activity at human M3 receptor in CHO cells assessed as calcium mobilization at 3 uM after 60 mins by FLIPR assay; type: functional, cell-based
Mus musculus [18] = experiment: Induction of seizures in ddY mouse at 100 mg/kg, sc measured for 45 mins after drug injection; type: organism-based; parameters: dose 100 mg/kg, route subcutaneous; settings: in vivo, 0.75 h
Cynomolgus monkey [19] = experiment: Cardiotoxicity in telemetered cynomolgus monkey assessed as increase in heart rate at 1.5 to 6 mg/kg, sc measured after 1 to 4 hrs by telemetry method; type: toxicity, organism-based, Macaca fascicularis; parameters: route subcutaneous; settings: in vivo
Rattus norvegicus [20] = experiment: Antipsychotic activity in Sprague-Dawley rats assessed as reversal of methamphetamine-induced hyperlocomotion at 0.6 mg/kg, sc administered 30 mins prior to methamphetamine injection measured for 80 mins from 10 mins after methamphetamine challenge in presence of 0.6 mg/kg, po risperidone; type: functional, organism-based
[21] = target: T4, Muscarinic acetylcholine receptor M4 (Homo sapiens, UniProt P08173); experiment: (§2) Partial agonist activity at human M4 receptor co-expressed with Galpha16 in CHO cells assessed as calcium mobilization after 60 mins by FLIPR assay; type: functional, cell-based
T4 sequence (P08173 whole entry): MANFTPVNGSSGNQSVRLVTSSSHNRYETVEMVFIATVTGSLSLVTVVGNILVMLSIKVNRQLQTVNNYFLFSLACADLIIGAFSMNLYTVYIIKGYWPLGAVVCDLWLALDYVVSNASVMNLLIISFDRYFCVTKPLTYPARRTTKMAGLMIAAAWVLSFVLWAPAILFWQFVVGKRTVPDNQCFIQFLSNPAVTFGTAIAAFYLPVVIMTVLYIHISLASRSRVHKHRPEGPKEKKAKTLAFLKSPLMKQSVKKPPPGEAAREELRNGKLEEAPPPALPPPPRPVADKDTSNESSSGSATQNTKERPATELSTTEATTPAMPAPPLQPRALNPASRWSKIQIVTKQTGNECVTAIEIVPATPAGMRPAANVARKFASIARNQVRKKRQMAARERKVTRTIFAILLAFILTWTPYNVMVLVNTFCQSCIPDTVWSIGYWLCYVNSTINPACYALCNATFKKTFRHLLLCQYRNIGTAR

[22] = target: T5, Muscarinic acetylcholine receptor M4 (Homo sapiens) (UniProt P08173); experiment: as §2; type: functional, cell-based
T5 sequence (whole entry): T4 sequence (P08173 whole entry)

Muscarinic acetylcholine receptor M3 (Homo sapiens), sequence (P20309 whole entry, looked up): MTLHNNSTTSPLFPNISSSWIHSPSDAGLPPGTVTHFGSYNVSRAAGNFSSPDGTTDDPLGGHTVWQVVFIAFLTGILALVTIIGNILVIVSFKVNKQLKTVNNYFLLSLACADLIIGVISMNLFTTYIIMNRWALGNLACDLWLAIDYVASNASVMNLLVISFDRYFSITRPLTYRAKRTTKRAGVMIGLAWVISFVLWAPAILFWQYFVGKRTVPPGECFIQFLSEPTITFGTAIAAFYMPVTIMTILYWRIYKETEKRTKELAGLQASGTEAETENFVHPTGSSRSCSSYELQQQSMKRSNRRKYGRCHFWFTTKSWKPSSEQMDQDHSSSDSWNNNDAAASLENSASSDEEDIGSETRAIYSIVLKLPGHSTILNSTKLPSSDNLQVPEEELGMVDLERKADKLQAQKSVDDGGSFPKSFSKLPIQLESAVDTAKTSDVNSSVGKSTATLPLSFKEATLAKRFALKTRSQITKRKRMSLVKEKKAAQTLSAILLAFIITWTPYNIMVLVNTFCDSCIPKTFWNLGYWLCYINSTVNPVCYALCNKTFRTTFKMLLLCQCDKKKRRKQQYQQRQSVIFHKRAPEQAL
Voltage-gated inwardly rectifying potassium channel KCNH2, sequence (Q12809 whole entry): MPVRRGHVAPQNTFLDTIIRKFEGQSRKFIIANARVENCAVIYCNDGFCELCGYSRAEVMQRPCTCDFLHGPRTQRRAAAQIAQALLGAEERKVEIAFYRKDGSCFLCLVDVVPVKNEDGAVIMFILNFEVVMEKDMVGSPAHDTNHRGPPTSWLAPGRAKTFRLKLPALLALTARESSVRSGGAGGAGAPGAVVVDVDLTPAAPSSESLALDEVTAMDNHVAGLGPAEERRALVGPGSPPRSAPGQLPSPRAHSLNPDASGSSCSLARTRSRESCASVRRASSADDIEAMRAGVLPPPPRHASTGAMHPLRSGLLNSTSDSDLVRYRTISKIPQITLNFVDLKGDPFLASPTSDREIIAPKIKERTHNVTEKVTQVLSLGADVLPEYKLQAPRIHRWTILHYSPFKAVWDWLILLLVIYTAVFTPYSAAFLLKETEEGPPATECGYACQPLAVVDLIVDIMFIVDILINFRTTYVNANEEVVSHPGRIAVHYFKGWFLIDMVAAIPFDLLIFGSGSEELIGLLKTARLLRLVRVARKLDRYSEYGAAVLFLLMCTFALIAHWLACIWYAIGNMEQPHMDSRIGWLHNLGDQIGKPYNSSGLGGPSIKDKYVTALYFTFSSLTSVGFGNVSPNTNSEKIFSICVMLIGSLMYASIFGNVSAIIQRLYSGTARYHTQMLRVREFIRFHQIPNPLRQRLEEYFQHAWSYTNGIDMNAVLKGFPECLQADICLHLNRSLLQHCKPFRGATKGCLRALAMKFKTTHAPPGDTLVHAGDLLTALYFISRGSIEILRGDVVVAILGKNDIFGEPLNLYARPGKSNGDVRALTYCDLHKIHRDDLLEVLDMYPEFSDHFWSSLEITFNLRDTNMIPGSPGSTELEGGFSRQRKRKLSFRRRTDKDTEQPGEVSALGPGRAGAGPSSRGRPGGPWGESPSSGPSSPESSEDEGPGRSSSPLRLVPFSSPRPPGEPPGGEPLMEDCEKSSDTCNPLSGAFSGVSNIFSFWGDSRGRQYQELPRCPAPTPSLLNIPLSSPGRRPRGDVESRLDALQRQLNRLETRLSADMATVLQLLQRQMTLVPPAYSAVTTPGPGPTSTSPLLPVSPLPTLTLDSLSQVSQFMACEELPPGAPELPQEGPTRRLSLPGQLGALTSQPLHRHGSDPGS

CCOC(=O)N1[C@@H]2CC[C@H]1C[C@H](CN1CC[C@H](N3C(=O)Cc4ccccc43)C1)C2
Activity (Rattus norvegicus [1]): Non-toxic | Activity (Mus musculus [2]): Non-toxic | Activity [3]: inactive | Activity (Cynomolgus monkey [4]): Non-toxic | Activity (Cynomolgus monkey [5]): Non-toxic | Intrinsic activity [6]: 60% | EC50 [7]: 0.012 µM | Activity (Rattus norvegicus [8]): Non-toxic | inhibition (Mus musculus [9]): Active | Activity (Cynomolgus monkey [10]): Toxic | IC50 [11]: 2.4 µM | Activity (Cynomolgus monkey [12]): Non-toxic | inhibition (Rattus norvegicus [13]): Active | Activity [14]: 63% | Activity [15]: 25% | Activity [16]: inactive | Activity [17]: 7% | Activity (Mus musculus [18]): Non-toxic | Activity (Cynomolgus monkey [19]): Toxic | inhibition (Rattus norvegicus [20]): Active | EC50 [21]: 0.029 µM | Intrinsic activity [22]: 42%

From ChEMBL document CHEMBL2331215, “Discovery of novel N-substituted oxindoles as selective m1 and m4 muscarinic acetylcholine receptors partial agonists” (ACS Med Chem Lett, 2013)
